{"source": "patent US4608365A", "about": "“Treatment of neurologic functions” (priority 1984, dated 1986)", "key": {"patients given TRH": {"tested_on": "patients given TRH", "assay": "Amelioration of TRH side-effects by co-medication", "design": "species or system human", "conditions": "in vivo", "excerpt": "In addition, all patients experiencing the various described side-effects considered those side-effects to be minor and desired further TRH treatments."}, "[1]": {"tested_on": "tissue-cultured fetal rat lower motor neurons", "assay": "Trophic-like effect on tissue-cultured fetal rat lower motor neurons (cholineactyltransferase)", "format": "cell-based", "conditions": "chronic", "excerpt": "\"Transmitter-like,\" as used herein, includes not only direct excitatory (or facilitatory) and inhibitory actions on the lower motor neurons, but also any action on lower motor neurons or afferents thereto that results indirectly in such an effect. That excitatory TRH action, increasing patients' strength, is either directly excitatory or facilitatory and perhaps analogous to the lower motor neuron facilitation of glutamate excitation noted with TRH micropipetted into spinal cords of normal amphibia (Nicoll, J. Pharmac. Exp. Therap. 1978; 207: 817-24; Phillis et al., Can. J. Physiol. Pharmacol. 1979; 57: 887-99 and rodents, White Abstr. Soc. Neurosci 1983, 9: 714, and in other animal studies. An inhibitory transmitter-like action seems likely to underlie both the rapid-onset autorefractory phenomenon and the possibly related clinical reduction of spasticity, spasms and cramps. A tachyphalaxis or desensitization phenomenon, perhaps similar to the clinical autorefractory state, has been noted in animal lower motor neurons with larger amounts of TRH micropipetted into the spinal cord (Nicoll and Phillis, et al., supra)."}}}
{"compound": "CN(C)CCOC(c1ccccc1)c1ccccc1.Cn1c(=O)c2[nH]c(Cl)nc2n(C)c1=O", "note": "[dimenhydrate]", "values": [{"measurement": "effect on nausea side-effect of TRH", "setting": "patients given TRH", "result": "diminishes the rare, occurring nausea side-effect"}]}
{"compound": "CC(N)C(O)c1ccccc1", "note": "(stereo not drawn) [phenylpropanolamine]", "values": [{"measurement": "effect on shivering side-effect of TRH", "setting": "patients given TRH", "result": "diminish the shivering side-effect"}]}
{"compound": "insulin", "values": [{"measurement": "enhancement of cholineactyltransferase", "setting": "[1]", "result": 10, "unit": "fold"}]}
